Experiments:
factor Xa = test: Anti-Xa activity measured using Test Team Heparin S (Sekisui Medical); format: biochemical; settings: for Anti-Xa/anti-IIa activity ratio: ratio of anti-Xa activity to anti-IIa activity
Procedure: Herein, the factor Xa inhibitory activity (anti-Xa activity) can be measured using Test Team (registered trademark) Heparin S (manufactured by Sekisui Medical Co., Ltd.).
Using Test Team (registered trademark) Heparin S (manufactured by Sekisui Medical Co., Ltd.), the anti-Xa activity of pentosan polysulfate sodium was measured.
(§1) The content of acetyl groups, the content of sulfur, the anti-Xa activity, and the anti-IIa activity were measured in the same manners as those of Examples 1 to 5.

factor IIa = target: T1, factor IIa (Homo sapiens, UniProt P00734); test: Anti-IIa activity measured using Biophen heparin anti-IIa (Hyphen Biomed); format: biochemical
T1 construct: purchased Hyphen Biomed
Procedure: Moreover, the factor IIa inhibitory activity (anti-IIa activity) can be measured using Biophen heparin anti-IIa (manufactured by Hyphen Biomed).
Using Biophen heparin anti-IIa (manufactured by Hyphen Biomed), the anti-IIa activity of pentosan polysulfate sodium was measured.
as §1

[1] = Table 1, influence of content of acetyl groups
[2] = Table 3, influence of molecular weight

Substance	Anti-IIa activity (IU/mg) (factor IIa; [1])	Anti-IIa activity (IU/mg) (factor IIa; [2])	Anti-Xa activity (IU/mg) (factor Xa; [1])	Anti-Xa/anti-IIa activity ratio (factor Xa; Table 1)	Anti-Xa activity (IU/mg) (factor Xa; [2])	Anti-Xa/anti-IIa activity ratio (factor Xa; Table 3)
pentosan polysulfate sodium [Comp. Ex. 1, reference compound]	0.0221		0.0840	3.801		
pentosan polysulfate sodium [Comp. Ex. 2]		15.52			1.69	0.11
pentosan polysulfate sodium [Comp. Ex. 3, reference compound]		62.12			16.61	0.15
pentosan polysulfate sodium [Comp. Ex. 4]		6.80			0.73	0.11
pentosan polysulfate sodium [Ex. 1]	0.1405		0.2047	1.457		
pentosan polysulfate sodium [Ex. 2]	0.1845		0.2588	1.403		
pentosan polysulfate sodium [Ex. 3]	0.0676		0.2439	3.607		

Continued, in another order:

Anti-IIa activity (IU/mg) (factor IIa; [1])	Anti-IIa activity (IU/mg) (factor IIa; [2])	Substance	Anti-Xa activity (IU/mg) (factor Xa; [1])	Anti-Xa/anti-IIa activity ratio (factor Xa; Table 1)	Anti-Xa activity (IU/mg) (factor Xa; [2])	Anti-Xa/anti-IIa activity ratio (factor Xa; Table 3)
0.0934		pentosan polysulfate sodium [Ex. 4]	0.2419	2.591		
0.0976		pentosan polysulfate sodium [Ex. 5]	0.2297	2.352		
	0.15	pentosan polysulfate sodium [Ex. 6]			0.67	4.29
	0.12	pentosan polysulfate sodium [Ex. 7]			0.15	1.25
	0.43	pentosan polysulfate sodium [Ex. 8]			0.22	0.51

— patent US11274165B2, “Pentosan polysulfate, pharmaceutical composition, and anticoagulant” (OJI HOLDINGS CORPORATION, priority 2017, dated 2022)
